This note sets out measurements from patent publication US10604555B2, “GIP derivatives and uses thereof” (priority 2018, dated 2020).

Data set [1] in a line: Pharmacokinetic study in minipigs, terminal half-life after i.v. administration. Format: in vivo. The note with it: female, Göttingen, minipig, plasma, iv, 5 nmol/kg; read-out: t1/2 (hours) harmonic mean (converted).
Experimental: This is done in a pharmacokinetic (PK) study, where the terminal half-life of the derivative in question is determined. By terminal half-life is generally meant the period of time it takes to halve a certain plasma concentration, measured after the initial distribution phase.
Female Göttingen minipigs were obtained from Ellegaard Göttingen Minipigs (Dalmose, Denmark) approximately 7-14 months of age and weighing from approximately 16-35 kg were used in the studies. The minipigs were housed individually and fed restrictedly once daily with SDS minipig diet (Special Diets Services, Essex, UK).
After at 3 weeks of acclimatisation two permanent central venous catheters were implanted in vena cava caudalis in each animal. The animals were allowed 1 week recovery after the surgery, and were then used for repeated pharmacokinetic studies with a suitable wash-out period between successive derivative dosing.
Blood samples (for example 0.8 ml) were collected in EDTA buffer (8 mM) and then centrifuged at 4° C. and 1942G for 10 minutes.
Individual plasma concentration-time profiles were analysed by a non-compartmental model in Phoenix WnNonLin ver. […] (Pharsight Inc., Mountain View, Calif., USA), and the resulting terminal half-lives (harmonic mean) determined.
The next data set deals with T1, human GIP receptor (Homo sapiens, UniProt P48546).
T1 construct: expressed in transfected cells; host or cells: BHK (parent line BHKTS13), BHK CRE luc2P hGIPR clone #5
T1 sequence (P48546 22-466): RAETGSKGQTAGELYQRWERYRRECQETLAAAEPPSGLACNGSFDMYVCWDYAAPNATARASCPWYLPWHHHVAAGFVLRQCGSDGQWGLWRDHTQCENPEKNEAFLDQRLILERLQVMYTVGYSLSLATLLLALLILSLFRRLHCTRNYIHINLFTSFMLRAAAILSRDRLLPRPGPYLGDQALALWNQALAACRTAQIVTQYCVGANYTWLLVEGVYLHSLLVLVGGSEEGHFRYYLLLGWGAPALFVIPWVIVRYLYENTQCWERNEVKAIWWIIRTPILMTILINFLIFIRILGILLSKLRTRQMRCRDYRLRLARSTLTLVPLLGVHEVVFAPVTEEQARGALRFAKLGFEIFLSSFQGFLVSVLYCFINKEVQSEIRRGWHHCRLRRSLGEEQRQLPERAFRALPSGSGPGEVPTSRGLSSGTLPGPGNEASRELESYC
The experiment in a line: In vitro potency (CRE luciferase; whole cells), BHK CRE luc2P hGIPR. The note with it: 0.2% HSA. Format: cell-based. The method in brief:
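BHK clones carrying a CRE luciferase element, each transfected with one human receptor, were seeded at 5000 cells/well overnight. Compounds were diluted in buffer with 1% ovalbumin and 0.1% Pluronic F-68, with or without human serum albumin. Luminescence was read after steadylite plus; non-linear log(agonist)-response fit, averaged over at least two replicates.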

*1 amine or outer side, *2 acyl side, *3 side chain or, on linkers, in order; H or OH if unused. Where a SMILES comes first, the peptide text is derived from it. Side-chain parts run from the residue outwards. [ ]: non-standard residue; d: D form. The star is where a group is joined. C18 diacid = O=C(O)CCCCCCCCCCCCCCCCC(=O)*; γGlu = O=C(O)[C@H](CCC(=O)[*:2])N[*:1]; Nle = CCCC[C@H](N)C(=O)O; Aib = CC(C)(N)C(=O)O

Take `CCCC[C@H](NC(=O)[C@H](C)NC(=O)[C@@H](NC(=O)[C@H](CO)NC(=O)[C@H](Cc1ccc(O)cc1)NC(=O)[C@H](CC(=O)O)NC(=O)[C@H](CO)NC(=O)[C@@H](NC(=O)[C@H](Cc1ccccc1)NC(=O)[C@@H](NC(=O)CNC(=O)[C@H](CCC(=O)O)NC(=O)[C@H](C)NC(=O)[C@@H](Cc1ccc(O)cc1)NC(C)=O)[C@@H](C)O)[C@@H](C)CC)[C@@H](C)CC)C(=O)N[C@@H](CC(=O)O)C(=O)N[C@@H](CCCCN)C(=O)N[C@H](C(=O)N[C@@H](CCCNC(=N)N)C(=O)N[C@@H](CCC(N)=O)C(=O)N[C@@H](CCC(N)=O)C(=O)N[C@@H](CC(=O)O)C(=O)N[C@@H](Cc1ccccc1)C(=O)N[C@H](C(=O)N[C@@H](CCCCNC(=O)CC[C@H](NC(=O)CC[C@H](NC(=O)CC[C@H](NC(=O)CCCCCCCCCCCCCCCCC(=O)O)C(=O)O)C(=O)O)C(=O)O)C(=O)N[C@@H](Cc1c[nH]c2ccccc12)C(=O)N[C@@H](CC(C)C)C(=O)N[C@@H](CC(C)C)C(=O)N[C@@H](C)C(=O)N[C@@H](CCC(N)=O)C(=O)N[C@@H](CCCCN)C(=O)NCC(=O)O)C(C)C)[C@@H](C)CC` [Compound 7, N{1}-acetyl, N{Epsilon-24}-[(4S)-4-carboxy-4-[[(4S)-4-carboxy-4-[[(4S)-4-carboxy-4-(17-carboxyheptadecanoylamino)butanoyl]amino]butanoyl]amino]butanoyl]-[D-Tyr1,Nle14,Arg18, Lys24]-hGIP(1-31)]: the half-life in data set [1] is 84 h. On human GIP receptor, the EC50 (in general, the concentration needed to bring the measured effect to its halfway point) came to 0.0489 nM.

Regarding `CCCC[C@H](NC(=O)[C@H](C)NC(=O)[C@@H](NC(=O)[C@H](CO)NC(=O)[C@H](Cc1ccc(O)cc1)NC(=O)[C@H](CC(=O)O)NC(=O)[C@H](CO)NC(=O)[C@@H](NC(=O)[C@H](Cc1ccccc1)NC(=O)[C@@H](NC(=O)CNC(=O)[C@H](CCC(=O)O)NC(=O)C(C)(C)NC(=O)[C@@H](N)Cc1ccc(O)cc1)[C@@H](C)O)[C@@H](C)CC)[C@@H](C)CC)C(=O)N[C@@H](CC(=O)O)C(=O)N[C@@H](CCCCN)C(=O)N[C@H](C(=O)N[C@@H](CCCNC(=N)N)C(=O)N[C@@H](CCC(N)=O)C(=O)NC(C)(C)C(=O)N[C@@H](CC(=O)O)C(=O)N[C@@H](Cc1ccccc1)C(=O)N[C@H](C(=O)N[C@@H](CCCCNC(=O)CC[C@H](NC(=O)CC[C@H](NC(=O)CC[C@H](NC(=O)CCCCCCCCCCCCCCCCC(=O)O)C(=O)O)C(=O)O)C(=O)O)C(=O)N[C@@H](Cc1c[nH]c2ccccc12)C(=O)N[C@@H](CC(C)C)C(=O)N[C@@H](CC(C)C)C(=O)N[C@@H](C)C(=O)N[C@@H](CCC(N)=O)C(=O)N[C@@H](CCCCN)C(=O)NCC(=O)O)C(C)C)[C@@H](C)CC` [Compound 11, N{Epsilon-24}-[(4S)-4-carboxy-4-[[(4S)-4-carboxy-4-[[(4S)-4-carboxy-4-(17-carboxyheptadecanoylamino)butanoyl]amino]butanoyl]amino]butanoyl]-[Aib2,Nle14,Arg18,Aib20,Lys24]-hGIP(1-31)] (H-Y[Aib]EGTFISDYSIA[Nle]DKIRQ[Aib]DFVK([γGlu-γGlu-γGlu-C18 diacid])WLLAQKG-OH), in data set [1], the half-life is 89 h. The same compound came in with a concentration for a half-maximal effect (EC50) at human GIP receptor of 0.0094 nM.
